Reference: PubChem BioAssay AID1117319 (Southern Research Institute, 2015)
Results filed as inconclusive are left out.

Biological target: Virion infectivity factor (Human immunodeficiency virus type 1 group M subtype B (isolate BH10)) + Virion infectivity factor (Human immunodeficiency virus type 1 group M subtype B (isolate BRU/LAI)) + Virion infectivity factor (Human immunodeficiency virus type 1 group M subtype B (isolate PCV12)) + Virion infectivity factor (Human immunodeficiency virus type 1 group M subtype B (isolate HXB2)) + DNA dC->dU-editing enzyme APOBEC-3G (Homo sapiens) (UniProt P69720+P69721+P69722+P69723+Q9HC16)
Experiment: HIV-1 Vif–A3G interaction blockers – biochemical, TR-FRET, GST-Vif 1-94, biotin-A3G peptide, dose response retest, primary screen (AID 1117319);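 also: Vif residues 1-94 fused to GST binding biotinylated APOBEC3G peptide 110-148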
Conditions: TR-FRET GST-Vif / biotin-A3G peptide binding

Row | SMILES | IC50 [µM]
1 | COC(=O)C1=C(C)N(Cc2ccccc2)C(=O)/C1=C\c1ccco1 | 11.2
2 | COC1=CC(=O)C(C2CC(=O)c3c(O)cc(O)cc3O2)=CC1=O (stereo unspecified) | 15
3 | O=C1S/C(=C\C=C\c2ccco2)C(=O)N1c1ccc(O)cc1 | 0.69
4 | N#C/C(=C\c1ccc([N+](=O)[O-])o1)C(=O)Nc1ccc(F)cc1 | 7.59
5 | O=C(O)Cc1cccc(=O)c(O)c1C(=O)O | 8.19
6 | CCCn1c(CNc2ccccc2O)nc2ccccc21 | 53
7 | CCN(CC)Cc1cc(O)c(CN(CC)CC)cc1O | 10.8
8 | CCOCCNC(=O)c1ccccc1C(=O)NCCOCC | 89.2
9 | FC(F)(F)c1cc(-c2ccco2)nc(NCc2cccnc2)n1 | 42.3
10 | CC(=O)Nc1ccc(S(=O)(=O)N2CCN(Cc3ccccn3)CC2)cc1 | 77.4
11 | CCN(CC)c1ccc(NC(=O)CCS(=O)(=O)c2ccc(Br)cc2)c(C)c1 | 5.51
12 | O=[N+]([O-])c1c(Nc2ccccc2O)cc(Cl)c2nonc12 | 9.34
13 | O=C(O)/C(=C/c1ccco1)NC(=O)c1ccccc1 | 19.4
14 | COc1ccccc1/C=C(/CC(=O)NCc1ccccc1)c1nc2ccccc2s1 | 45.3
15 | O=C(c1cc(-c2ccco2)on1)N1CCN(c2ccccc2)CC1 | 31.2
16 | CCCCn1c(=NC(=O)c2cccnc2)c(C#N)cc2c(=O)n3cccc(C)c3nc21 | 55.9
17 | Cc1ccc(NC(=O)CCCCCC2NC(=O)NC2C)cc1 (stereo unspecified) | 0.71
18 | O=C1C2CCCN2C(c2cccs2)N1c1ccccn1 (stereo unspecified) | 82
19 | O=C1CCCC(O)=C1N=Nc1ccc(S(=O)(=O)N2CCOCC2)cc1 | 6.66

Row | SMILES | IC50 [µM]
20 | COc1ccc(OC)c(NC(=O)CCN2CCC(C)CC2)c1 | 25.4
21 | COc1ccc(/C=N/NC(=O)CNc2n[nH]c(=O)[nH]c2=O)cc1OC | 42.6
22 | O=c1cc(OCc2ccccc2)cc[nH]1 | 3.1
23 | Cc1ccc(C)n1/N=C1/NC(=O)CS1 | 0.9
24 | O=C1NC(c2cccc(Br)c2)=N/C1=C\c1ccco1 | 9.01
25 | O=C(NNC(=O)c1ccccc1F)c1cccc(-n2cccc2)c1 | 8.55
26 | CC(=O)C1=C(C)NC(C)=C(C(C)=O)C1c1cccs1 | 23.5
27 | COc1cc(C2Nc3ccccc3C(=O)N2c2ccccc2)ccc1O (stereo unspecified) | 39.4
28 | CCOC(=O)c1cc([N+](=O)[O-])cc([N+](=O)[O-])c1Sc1ncnc2nc[nH]c12 | 69.6
29 | CC(C(=O)O)N1C(=O)/C(=C/C=C/c2ccco2)SC1=S (stereo unspecified) | 0.39
30 | Cc1cc(SCC2=NNC(=O)C2)c(Cl)cc1Cl | 63.2
31 | O=C(O)/C=C/C(=O)Nc1cccnc1 | 62.9
32 | O=C(O)c1cc2cccc(S(=O)(=O)N3CCOCC3)c2cc1O | 38
33 | Cc1ccc2c(c1C)NC(C(=O)O)C1CC=CC21 (stereo unspecified) | 0.59
34 | O=C(O)CCc1ccc(-c2cccs2)n1-c1ccc(C(=O)O)cc1 | 80.6
35 | O=C(O)c1ccc(S(=O)(=O)c2ccc([N+](=O)[O-])cc2[N+](=O)[O-])cc1 | 53.3
36 | COc1ccc(-c2cc(-c3ccco3)[nH]c(=O)c2C#N)cc1 | 25.3
37 | O=C1NC(=S)S/C1=C\c1ccc(SCc2ccco2)o1 | 0.81
38 | COc1ccc(CCNC(=O)/C=C/c2ccco2)cc1 | 37

Row | SMILES | IC50 [µM]
39 | Cc1ccc(Nc2nc(C(=O)NCc3ccco3)cs2)cc1 | 78.2
40 | Cc1ccc(C)c(NC(=O)CN(C)C(=O)c2cccc(-n3cccc3)c2)c1 | 15.4
41 | COc1ccc(/C=C(\NC(=O)c2ccc(OCC(C)C)cc2)C(=O)OCc2ccco2)cc1 | 32.7
42 | CCN(CC)CCN1C(=O)c2ccccc2NC1c1ccc(N(C)C)cc1 (stereo unspecified) | 90.1
43 | CSc1ccccc1NC(=O)c1noc2c1CCC2 | 18.4
44 | O=[N+]([O-])c1cc(/C=N\Nc2nccs2)ccc1O | 1.62
45 | COc1ccc(-c2nc3ccccc3n2OC(=O)N(C)C)cc1 | 42.9
46 | O=C(O)C1=NN(c2cc(Cl)c(S(=O)(=O)O)cc2Cl)C(=O)C1 | 85.7
47 | Cc1cc(NC(=O)Cc2cccs2)no1 | 3.92
48 | C/C(=N\Nc1ccc([N+](=O)[O-])cc1[N+](=O)[O-])c1cc2c(ccc3ccccc32)oc1=O | 2.92
49 | O=C(O)CCCN1C(=O)/C(=C\C(Cl)=C\c2ccccc2)SC1=S | 2.45
50 | C=CCN(CC=C)C(=S)NC(=O)c1ccc([N+](=O)[O-])cc1 | 66.8
51 | Cc1ccc(/C=C/C(=O)Nc2cccc(S(=O)(=O)N3CCOCC3)c2)o1 | 20.9
52 | CSc1ccc(/C=N/Nc2cccc(C(=O)O)c2)cc1 | 11.2
53 | N=C(N)c1ccc(N=Nc2c(O)ccc3c2[nH]c2ccccc23)cc1 | 3.87
54 | Cc1ccc(NC(=O)CN2C(=O)N/C(=C/c3ccco3)C2=O)cc1 | 2
55 | COc1cc(C2C(C#N)=C(N)N(c3cccnc3)C3=C2C(=O)CCC3)ccc1O (stereo unspecified) | 13.6
56 | O=C1c2ccccc2C(=O)N1OCCOCCOCCBr | 92.3
